Tested on: stanniocalcin expression in HMVEC cells
Test: In vitro endothelial cell gene expression profiling (Affymetrix / TaqMan), HMVEC
Assay type: cell-based, human
Details: HMVECs; VEGF 10 ng/ml with heparin, 2 hours (FIG. 2A)
Excerpt: Pooled human microvascular endothelial cells (HMVECs) or human umbilical vein endothelial cells (HUVECs) were purchased as 2 T75 flasks (Clonetics, Cambrex Corporation, East Rutherford, N.J.). Cells were expanded in fill Clonetics growth media (EGF+5% FCS) on 2% gelatin coated flasks until sufficient numbers were obtained to perform the experiment (4 flasks each at less than 6 passages). Prior to the treatments, cells were washed 2× in PBS and starved overnight in basal media (EBM+0.2% endotoxin free BSA). The next day, media was removed and replaced with 25 ml of EBM+BSA. VEGFR2 inhibitor (drug) stock was made in DMSO and added to a final concentration of 100 nm in 0.1% DMSO. Heparin was used at 1.5 U/ml final concentration. VEGF final concentration was 10 ng/ml. Drug/DMSO was added for 30 minutes prior to adding VEGF/Heparin for 2 hours. […] RNA was subsequently isolated via Qiagen midi spin kits and quantitated by OD260/280 and gel visualization and/or Agilent bioanalyzer.
Samples were organically extracted and ethanol precipitated. […] The resulting cRNA was put through RNeasy clean-up protocol, and then quantified using UV spectrophotometry. […]
A master mix of the primers at 50 μM each was prepared. The samples were analyzed by standard PCR conditions on an ABI PRISM 7700 Sequence Detector using SYBR green probes. β-actin was used as controls for loading normalization.

For VEGF, the “human stanniocalcin-1 expression induced after treatment with VEGF” value was about 20 fold.

— patent publication US20070134670A1, “Methods for prediction and prognosis of cancer, and monitoring cancer therapy” (BAYER PHARMACEUTICALS CORPORATION, priority 2003, published 2007)
